Values quoted from earlier work as cited in the CATMoS acute toxicity set (Mansouri et al. 2021).
Where “and” joins values, the source holds several entries; their conditions need not be identical. Equal entries are not always repeated.

Assay: rat acute oral toxicity
Details: in vivo
Excerpt: […]The data set underlying the modeling effort for this project was initially compiled by NICEATM and U.S. EPA’s CCTE. Briefly, LD50 data were collected from rat acute oral systemic toxicity tests, including limit tests, ranges/confidence intervals, and discrete LD50 values. The full data set included 21,200 LD50 entries for 15,688 substances. […] Data were reviewed to ensure that LD50 values with obvious errors in the extracted data such as unit conversion errors (e.g., comma and decimal separator misplacements) were either fixed or removed. After this review, 16,209 LD50 values remained. Many of the chemicals represented had multiple LD50 entries, requiring that a single representative value per Chemical Abstracts Service Registry Number (CASRN) identifier be defined to facilitate modeling efforts. Based on ATWG feedback and to define the representative LD50 as a protective value while accounting for the distribution across multiple LD50s, the median of the lowest quartile was computed using only discrete LD50 values (omitting limit test data and range and confidence interval data). A detailed summary of the data compilation is available online on the NICEATM webpage dedicated to the collaborative modeling project (NTP 2020).
[…][…] For categorical designations, limit test and range/confidence interval LD50 data were integrated wherever possible. As such, the number of chemicals with end point values/calls varies across the modeling end points (Table 3) based on whether chemicals had representative LD50 values and/or other data. If a chemical had both, the representative value was used to determine categorical calls rather than limit test data. Some data were useable only for certain end points and categories depending on the thresholds. For example, ranges that spanned multiple hazard categories were considered only for the binary (very toxic/nontoxic) end points and omitted from rendering a determination for hazard category assignment.
[…]The final data set comprising 11,992 chemicals was split into training and evaluation sets […], respectively. This process was performed semirandomly by ordering chemicals based on the five end points (categorical and continuous LD50 values) and partitioning every fourth record into the evaluation set accordingly. This approach was taken to ensure an equivalent distribution of the LD50 values and the different hazard categories between the training and the evaluation sets without supervised sampling of the chemicals based on structures (Figure 1A). The sources of the chemical structures were also kept equivalent between the two sets, with chemical structures obtained from DSSTox, being the highest quality, representing over 75% of each set (Figure 1B).

SMILES	LD50
CCCCCC[C@H]1C(=O)O[C@H](C)[C@H](NC(=O)c2cccc(NC=O)c2O)C(=O)O[C@@H](C)[C@@H]1OC(=O)CC(C)C	1470 mg/kg
CCc1cnc(C(=O)O)c(C(=O)O)c1	3350 mg/kg
Nc1cc2c(S(=O)(=O)O)cc(S(=O)(=O)O)cc2cc1S(=O)(=O)O	13000 mg/kg
CCOP(=O)(OCC)SCc1ccccc1	660 mg/kg
CC(=O)O[C@]1(C(C)=O)CC[C@H]2[C@@H]3C=C(Cl)C4=CC(=O)CC[C@]4(C)[C@H]3CC[C@@]21C	6400 mg/kg
CCOC(=O)c1c(C)cc2c(CO)n[nH]c(=O)c2c1C	1750 mg/kg
CN(N=O)c1ccncc1	200 mg/kg
O=C(O)C(Cl)CCl (stereo unspecified)	289 mg/kg
CCOc1ccc([N+](=O)[O-])cc1CNCCO	25 mg/kg
CC(O)CN(CC(C)O)c1nc(Nc2ccc(C=Cc3ccc(Nc4nc(Nc5cc(S(=O)(=O)O)ccc5S(=O)(=O)O)nc(N(CC(C)O)CC(C)O)n4)cc3S(=O)(=O)O)c(S(=O)(=O)O)c2)nc(Nc2cc(S(=O)(=O)O)ccc2S(=O)(=O)O)n1 (stereo unspecified)	12100 mg/kg
CN(C)C1CC(c2ccccc2)c2ccccc21 (stereo unspecified)	176 mg/kg
O=[N+]([O-])c1cc2c(ccc3ccccc32)o1	439 mg/kg
ClCCCCCCCCC(Cl)(Cl)Cl	370 mg/kg
CCOC(=O)C1CC2CC1C1OC21 (stereo unspecified)	4760 mg/kg
CC(=O)OC(C(=O)NC(N)=O)c1ccccc1 (stereo unspecified)	2100 mg/kg
CC(Oc1c(Cl)cccc1Cl)C1=NCCN1 (stereo unspecified)	70 mg/kg
Cc1ccc(N)c(C)c1	1260 mg/kg
CC(Cl)=CC(=O)Nc1ccc(O)cc1	1580 mg/kg
CNC(=O)ON=C1CSC(C)CS1 (stereo unspecified)	5.1 mg/kg
CCCCNC1CCCCC1	330 mg/kg
CCNc1nc(NC(C)(C)C)nc(OC)n1	433 mg/kg
Clc1ccc2ncoc2c1	791 mg/kg

SMILES	LD50
C[N+]1(C)CCCC(OC(=O)C(O)(c2ccccc2)c2ccccc2)C1 (stereo unspecified)	742 mg/kg
CCCCCCCCOC(=O)C1=C(C)NC(C)=C(C(=O)NC2CC2)C1c1ccccc1[N+](=O)[O-] (stereo unspecified)	50 mg/kg
COc1cc(OC)cc(OCCO)c1	4050 mg/kg
O=Cc1cccc(Br)c1	1130 mg/kg
CCc1nccnc1C	600 mg/kg
CCCCC(CC)CNCC(C)(N)CN(C)CC(CC)CCCC (stereo unspecified)	1000 mg/kg
NC1CCCc2ccccc2C1 (stereo unspecified)	270 mg/kg
Cc1c(-c2ccccc2)oc2c(C(=O)OCCN3CCCCC3)cccc2c1=O	1440 mg/kg and 1040 mg/kg
ClCC=C(Cl)CCl	224 mg/kg
O=c1ccc(O)n[nH]1	3900 mg/kg
CCCC(=O)Oc1ccc(OC)cc1	3400 mg/kg
CC(C)=CC=O	690 mg/kg
Cc1ccc(OCC(O)CNC(C)(C)C)c2oc(=O)ccc12 (stereo unspecified)	676 mg/kg
O=[N+]([O-])c1c(Cl)cc(Cl)c([N+](=O)[O-])c1Cl	500 mg/kg
OP(OCCCl)OCCCl	260 mg/kg
N#Cc1ccc(N)cc1	283 mg/kg
COP(N)(=S)Oc1ccccc1C(=O)OC(C)C (stereo unspecified)	50 mg/kg
CO[Si](CCCN=C=O)(OC)OC	878 mg/kg
O=NN1CCNCC1	2260 mg/kg
CC(=O)OC(C)(C)Cc1ccccc1	3300 mg/kg
CSCCC(O)C#N (stereo unspecified)	48 mg/kg
Cc1nccnc1SCc1ccco1	1000 mg/kg

SMILES	LD50
CC(=O)N(CCN(C)C)n1cc(-c2ccccc2)c2ccccc21	1100 mg/kg
Clc1c(Cl)c(Cl)c2c(c1Cl)Oc1ccccc1O2	0.8 mg/kg
CC(C)=NNC(=O)CSc1cc(Oc2ccc(F)cc2)ncn1	380 mg/kg
CCCOC(=O)CCC	15000 mg/kg
C=CCOC(=O)Nc1ccc(NCc2ccc(F)cc2)nc1N	1030 mg/kg
C=CC#CC(C)(C)O	600 mg/kg
CC(C)Oc1ccccc1N	840 mg/kg
C=COCC(CC)CCCC (stereo unspecified)	1350 mg/kg
CCOC(=O)CSP(=O)(OC)OC	385 mg/kg
CCCCCCCCCCCCCCCCOP(=O)([O-])OCC[N+](C)(C)C	246 mg/kg
COCCN(C(=O)CCl)c1c(C)cccc1C	1600 mg/kg
c1ccc(C2=C(c3ccccc3)SCCO2)cc1	3000 mg/kg
CCC/C=C/C=O	780 mg/kg
CNC(=O)Oc1cc(C)c(S(C)=O)c(C)c1 (stereo unspecified)	42 mg/kg
COc1ccc(C=CC(=O)OCCC(C)C)cc1	9600 mg/kg
COC(=O)c1cc([N+](=O)[O-])ccc1Cl	5360 mg/kg
CCOc1cc2c3c([nH]c2cc1N)CCCC3	810 mg/kg
CCOP(=S)(CCl)Sc1ccc(C)cc1 (stereo unspecified)	336 mg/kg
CCOP(=S)(OCC)SC1CCC2C=CCC1S2 (stereo unspecified)	140 mg/kg
O=Cc1cccc(Oc2ccccc2)c1	1220 mg/kg
O=CC(Br)(Br)Br	100 mg/kg
CNC(=C[N+](=O)[O-])NCCSCc1csc(CN(C)C)n1	1650 mg/kg
